The nature of data set [1]: Water solubility. Type of data set: physicochemical. The conditions noted are these: compound or a pharmaceutically acceptable salt thereof.
Data set [2] can be described thus: Stability in the presence of moisture. Format: physicochemical. The note with it: compound or a pharmaceutically acceptable salt thereof.

Each structure is given as a SMILES string.

In the case of `CCN(CC)CCN1CCc2[nH]c(/C=C3\C(=O)Nc4ccc(F)cc43)c(C)c2C1=O.O=C(O)C[C@H](O)C(=O)O` [compound of formula (I), 5-(2-diethylamino-ethyl)-2-(5-fluoro-2-oxo-1,2-dihydro-indol-3-ylidene-methyl)-3-methyl-1,5,6,7-tetrahydro-pyrrolo[3,2-c]pyridin-4-one], the water solubility result in data set [1] is “poor”. Moreover, the “stability in the presence of moisture” value in data set [2] is listed as “unstable”.

These data come from patent US10973807B2, “Pharmaceutical composition comprising pyrrolo-fused six-membered heterocyclic compound” (Jiangsu Hengrui Medicine Co., Ltd., priority 2016, dated 2021).
